Results reported in patent EP0277611A2, “Alkyl-substituted N-benzopyranyl lactames, process for their preparation, their use and pharmaceutical preparations on the basis of these compounds” (HOECHST AKTIENGESELLSCHAFT, priority 1987, dated 1988).
Like-named read-outs stand apart in the source and are kept apart here.

Columns and labels:
[1] = system: arteriellen Blutdruck; assay: Effect on arterial blood pressure in anaesthetised normotensive rats (ED25 from minima of blood pressure curves); format: in vivo, männlichen Sprague-Dawley Ratten; conditions: Rattus norvegicus, anaesthetised (Nembutal 70 mg/kg i.p.) normotensive rats, from minimum of blood pressure curve, read-out: ED₂₅
Procedure: Der Einfluß der Verbindungen auf den arteriellen Blutdruck wurde an narkotisierten normotensiven männlichen Sprague-Dawley Ratten untersucht. Als Betäubungsmittel wurde Nembutal® in einer Dosis von 70 mg/kg i.p. verwendet. Die Blutdruckmessung erfolgte mittels Katheter in der Arteria carotis mit einem Druckwandler (Statham P 23 Db). Für die i.v. Applikation wurden die Substanzen in Dimethylsulfoxid gelöst und mit Wasser verdünnt. Die Konzentration der Stammlösung war 1mg/ml, wobei die Lösung 15 % Dimethylsulfoxid enthielt. Anteile dieser Stammlösung wurden für die Injektion jeweils frisch mit Wasser verdünnt.
Es kamen Konzentrationen von 50 (100), 30 (30) und 10 (10) µg/ml für die i.v. Applikation, 100 (100), 50 (60) und 30 (30) µg/ml für die i.d. Applikation zur Anwendung. Die angegebenen Zahlen beziehen sich dabei auf das Experiment a), die in Klammern angegebenen Zahlen auf Experiment b).
Die Blutdruckmessung wurde nach 0; 0,2; 0,4; 1; 2; 3; 10; 15 und 30 min. nach der i.v. Applikation sowie nach 0; 1; 3; 5; 10; 15; 20; 30; 40; 50 und 60 min. nach der i.d. Applikation vorgenommen. Die ED₂₅ Werte wurden aus dem Minima der jeweiligen Blutdruckkurven bestimmt. • a) (±)-(3R*, 4S*, 5ʹS*)-6-Cyano-3,4-dihydro-2,2-dimethyl-4-(2ʹ-oxo-5ʹ-methyl-1ʹ-pyrrolidinyl)-2H-benzo[b]pyran-3-ol (Verbindung aus Beispiel 1): ED₂₅= 19 µg/kg (i.v.) ED₂₅=42 µg/kg (i.d.) • b) (±)-6-Cyano-3,4-dihydro-2,2-dimethyl-trans-4-(2-oxo-1-pyrrolidinyl-2H-benzo[b]pyran-3-ol (Beispiel aus J. Med. Chem. 1986, 29, 2194-2201) ED₂₅= 42 µg/kg (i.v.) ED₂₅= 82 µg/kg (i.d.)

[2] = system: Meerschweinchen-Ureteren; assay: Influence on KCl-induced rhythmic contractions of isolated guinea pig ureters in vitro; format: cell-based; conditions: 10⁻⁷ mol/l test substance, KCl 4 x 10⁻² mol/l, mean ± SEM; for inhibition at 0.1 µM: Cavia porcellus
Text: Beeinflussung der KCl-induzierten rhythmischen Kontraktionen an Meerschweinchen-Ureteren in vitro
Männliche Meerschweinchen wurden durch Nackenschlag und Entbluten aus den Carotiden getötet. Die beiden Ureteren wurden sofort entnommen, wobei der Bereich nahe dem Nierenkelch wegen der dort vorhandenen Schrittmacher-Aktivität gemieden wurde. 2 cm lange Stücke wurden zunächst in einer Petrischale, die Tyrode-Lösung enthielt, von Bindegewebe befreit und dann jeweils mit einer Vorspannung von 4,9 mN (=0,5 p) in ein 25 ml-Organbad (Fa. Rhema Labortechnik, Hofheim) gehängt. Das Organbad enthielt eine auf 37° gehaltene und mit Carbogen (95 % O₂, 5 % CO₂) durchperlte Tyrodelösung mit folgender Zusammensetzung (mmol/l): NaCl 137, KCl 2,68, MgSO₄ 1,05, CaCl₂ 1,8, NaH₂PO₄ 0,41, NaHCO₃ 11,9, Glucose 5,55. Die Kontraktionen wurden isometrisch gemessen unter Verwendung von Gould/Statham UC2 Gebern. Nach einer Äquiilibrierungszeit von mindestens 15 Minuten wurde KCl in das Organbad zugegeben, wobei eine Konzentration von 4 x 10⁻² mol/l erreicht wurde. Der Agonist wurde 2 Minuten im Bad belassen, wobei phasische Kontraktionen auftraten, ohne einen nennenswerten Anstieg der Grundspannung zu bewirken.
Danach wurde 1 Minute ausgespült, woraufhin die rhythmischen Kontraktionen sofort aufhörten. Nach einem zweiten Durchgang von Agonistgabe und Spülvorgang wurde die Prüfsubstanz (Benzopyran-Derivat) in das Organbad zugegeben (in Form einer Lösung in 0,1 ml Ethanol, die Endkonzentrationen betrugen in allen Fällen 10⁻⁷ mol/l) und eine Einwirkungszeit von einer Minute abgewartet, bevor KCl zugesetzt wurde. An den folgenden Spülvorgang schlossen sich zwei abschließende Agonistgabe/Spülgänge an. Von den jeweils zweiminütigen Perioden unter KCl-Einwirkung wurden folgende Parameter bestimmt: 1. mittlere Kontraktionskraft, 2. Frequenz der Kontraktionen und 3. Produkt aus mittlerer Kontraktionskraft und Frequenz. Ausschlußkriterien waren mittlere Kontraktionskräfte unter 4 mN oder Frequenzen unter 2/min bei mehr als einer der vier Perioden, bei denen nur der Agonist KCl im Bad vorhanden war. Ausgewertet wurde die prozentuale Hemmung unter Prüfsubstanz im Vergleich zum gemittelten Wert aus den beiden Vorläufen.
Neben dem arithmetischen Mittelwert (x) wurde der Standardfehler des Mittelwerts (SEM) errechnet.

[3] = percent inhibition of product of mean contraction force and frequency, read-out: k·v [%]
[4] = percent inhibition vs mean of the two pre-runs, read-out: Frequenz v [%]
[5] = percent inhibition vs mean of the two pre-runs, read-out: mittlere Kontraktionskraft k [%]
[6] = percent inhibition vs mean of the two pre-runs, 0.1 µM

Row | SMILES | ED25 ([1]; iv) [mg/kg] | ED25 ([1]; i.d.) [mg/kg] | inhibition at 0.1 µM [2, 3] [%] | inhibition at 0.1 µM [2, 4] [%] | inhibition at 0.1 µM [2, 5] [%] | k·v [%] ([2]; percent inhibition of product of mean contraction force and frequency, 0.1 µM) | Frequenz v [%] [2, 6] [%] | mittlere Kontraktionskraft k [%] [2, 6] [%]
1 | C[C@H]1CCC(=O)N1[C@H]1c2cc(C#N)ccc2OC(C)(C)[C@@H]1O (racemic) [(3R*, 4S*, 5ʹS*)-6-Cyano-3,4-dihydro-2,2-dimethyl-4-[2ʹ-oxo-5ʹ-methyl-1ʹ-pyrrolidinyl]-2H-benzo[b]pyran-3-ol] | 0.019 | 0.042 | – | – | – | – | – | –
2 | CC1(C)Oc2ccc(C#N)cc2C(N2CCCC2=O)C1O (racemic) [(±)-6-Cyano-3,4-dihydro-2,2-dimethyl-trans-4-(2-oxo-1-pyrrolidinyl-2H-benzo[b]pyran-3-ol, reference compound] | 0.042 | 0.082 | 61 ± 7 | 58 ± 5 | 8 ± 8 | – | – | –
3 | C[C@@H]1CCC(=O)N1[C@H]1c2cc(C#N)ccc2OC(C)(C)[C@@H]1O (racemic) [±)-(3R^*,4S^*,5'R^*)-6-Cyano-3,4-dihydro-2,2-dimethyl-4-(2'-] [(3R*, 4S*, 5ʹR*)-6-Cyano-3,4-dihydro-2,2-dimethyl-4-[2ʹ-oxo-5ʹ-methyl-1ʹ-pyrrolidinyl)-2H-benzo[b]pyran-3-ol] | – | – | – | – | – | 96 ± 1 | 86 ± 4 | 69 ± 11
4 | C[C@@H]1CCC(=O)N1[C@H]1c2cc(C#N)ccc2OC(C)(C)[C@@H]1O [(-)-(3R, 4S, 5ʹR)-6-Cyano-3,4-dihydro-2,2-dimethyl-4-(2ʹ-oxo-5ʹ-methyl-1ʹ-pyrrolidinyl)-2H-benzo[b]pyran-3-ol] | – | – | 96 ± 2 | 89 ± 4 | 75 ± 8 | – | – | –
